{"source": "patent US20100144727A1", "about": "“Oxazolidine and Morpholine Carboxamide Derivatives as P2X7 Modulators” (priority 2007, published 2010)", "data": [{"molecular_target": "T1, human P2X7 receptor (Homo sapiens, UniProt Q99572)", "T1 construct": "expressed in transfected cells; host or cells: HEK293", "T1 sequence (Q99572 1-595)": "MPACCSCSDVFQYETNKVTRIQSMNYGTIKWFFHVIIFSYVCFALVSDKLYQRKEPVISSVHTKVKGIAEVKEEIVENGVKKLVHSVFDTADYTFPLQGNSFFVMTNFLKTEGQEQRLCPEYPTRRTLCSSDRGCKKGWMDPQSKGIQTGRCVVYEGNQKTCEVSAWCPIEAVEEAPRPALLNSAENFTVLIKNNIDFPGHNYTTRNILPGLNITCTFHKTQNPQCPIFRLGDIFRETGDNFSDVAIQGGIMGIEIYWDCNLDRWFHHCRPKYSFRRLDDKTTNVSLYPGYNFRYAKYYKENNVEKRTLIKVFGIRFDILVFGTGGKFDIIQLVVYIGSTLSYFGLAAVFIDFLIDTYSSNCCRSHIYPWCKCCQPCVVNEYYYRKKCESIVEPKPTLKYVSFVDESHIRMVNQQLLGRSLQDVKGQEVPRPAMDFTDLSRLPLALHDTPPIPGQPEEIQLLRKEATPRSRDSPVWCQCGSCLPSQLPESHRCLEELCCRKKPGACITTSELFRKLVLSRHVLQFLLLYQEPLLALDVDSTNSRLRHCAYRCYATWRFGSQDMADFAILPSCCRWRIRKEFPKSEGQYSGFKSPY", "experiment": "Ethidium Accumulation Assay", "assay_type": "cell-based", "settings": "HEK293 cells expressing human recombinant P2X7 receptors; 1 mM ATP; ethidium 100 μM; read-out: pIC50 in the Ethidium Accumulation Assay (antagonist, blocking ATP responses) (converted)", "description": "Studies were performed using NaCl assay buffer of the following composition (in mM): 140 mM NaCl, HEPES 10, N-methyl-D-glucamine 5, KCl 5.6, D-glucose 10, CaCl2 0.5 (pH 7.4). HEK293 cells, expressing human recombinant P2X7 receptors, were grown in poly-L-lysine pretreated 96 well plates for 18-24 h. […] The cells were washed twice with 350 μl of assay buffer before addition of 50 μl of antagonist. The cells were then incubated at room temperature (19-21° C.) for 30 min before addition of ATP and ethidium (100 μM final assay concentration). The ATP concentration was chosen to be close to the EC80 for the receptor type and was 1 mM for studies on the human P2X7 receptor. Incubations were continued for 8 or 16 min and were terminated by addition of 25 μl of 1.3M sucrose containing 5 mM of the P2X7 receptor antagonist reactive black 5 (Aldrich). Cellular accumulation of ethidium was determined by measuring fluorescence (excitation wavelength of 530 nm and emission wavelength of 620 nm) from below the plate with a Canberra Packard Fluorocount (Pangbourne, UK). Antagonist pIC50 values for blocking ATP responses were determined using iterative curve fitting techniques.", "units": {"IC50": "nM"}, "values": [{"smiles": "CCN1C(=O)OC[C@H]1C(=O)NCc1ccc(F)cc1Cl", "note": "[Example E1, N-[(2-chloro-4-fluorophenyl)methyl]-3-ethyl-2-oxo-1,3-oxazolidine-4-carboxamide]", "IC50": "≤ 100"}, {"smiles": "CN1C(=O)OCC1C(=O)NCc1cccc(C(F)(F)F)c1Cl", "note": "(stereo not shown) [Example E3, N-{[2-chloro-3-(trifluoromethyl)phenyl]methyl}-3-methyl-2-oxo-1,3-oxazolidine-4-carboxamide]", "IC50": "≤ 100"}, {"smiles": "CN1C(=O)OC[C@H]1C(=O)NCc1cccc(C(F)(F)F)c1Cl", "note": "[Example E4, N-{[2-chloro-3-(trifluoromethyl)phenyl]methyl}-3-methyl-2-oxo-1,3-oxazolidine-4-carboxamide]", "IC50": "≤ 100"}, {"smiles": "CN1C(=O)COCC1C(=O)NCc1cccc(C(F)(F)F)c1Cl", "note": "(stereo not shown) [Example E10, N-{[2-chloro-3-(trifluoromethyl)phenyl]methyl}-4-methyl-5-oxo-3-morpholinecarboxamide]", "IC50": "≤ 100"}]}]}
